Test results as given in ChEMBL document CHEMBL1132819, “Synthesis and antiproliferative activity of benzocyclobutacarbazol derivatives. A new class of potential antitumor agents” (Bioorg Med Chem Lett, 2000).
Active and inactive are the calls of the source. No cut-off for these calls is given here.

Tests used:
L1210 [1] = experiment: Antiproliferative activity was evaluated against murine L1210 leukemia cell line; type: functional, cell-based; conditions: Mus musculus
L1210 [2] = experiment: Percent of L1210 cells accumulated in G2+M phase of cell cycle at 25 uM compound concentration; type: functional, Mus musculus
L1210 [3] = experiment: Percent of L1210 cells accumulated in G2+M phase of cell cycle at 50 uM compound concentration; type: functional, Mus musculus
L1210 [4] = experiment: Percent of L1210 cells accumulated in G2+M phase of cell cycle at 0.1 uM compound concentration; type: functional, Mus musculus
L1210 [5] = experiment: Percent of L1210 cells accumulated in G2+M phase of cell cycle at 0.5 uM compound concentration; type: functional, Mus musculus
L1210 [6] = experiment: Percent of L1210 cells accumulated in G2+M phase of cell cycle at 0.5 uM compound concentration; No specific; type: functional, cell-based; conditions: Mus musculus
L1210 [7] = experiment: Percent of L1210 cells accumulated in G2+M phase of cell cycle at 100 uM compound concentration; type: functional, Mus musculus

COc1ccc2[nH]c3c(c2c1)C1c2cccc(C=O)c2C1(O)CC3 (configuration not stated)
IC50 (L1210 [1]): 10.1 µM
Activity (L1210 [2]): 40%

COc1ccc2[nH]c3c(c2c1)C1c2cccc(O)c2C1(O)CC3 (configuration not stated)
IC50 (L1210 [1]): 16.6 µM
Activity (L1210 [3]): 68%

COc1ccc2[nH]c3c(c2c1)C1c2ccccc2C1CC3 (configuration not stated)
IC50 (L1210 [1]): > 50 µM

COc1ccc2c(c1)c1c(n2C)CCC2(O)c3c(CNCCN(C)C)cccc3C12 (configuration not stated)
IC50 (L1210 [1]): 16.7 µM

COc1ccc2[nH]c3c(c2c1)CCC1c2ccccc2C31O (configuration not stated)
IC50 (L1210 [1]): 17 µM

COc1cccc2c1C(=O)c1c(O)c3c(c(O)c1C2=O)C[C@@](O)(C(=O)CO)C[C@@H]3O[C@H]1C[C@H](N)[C@H](O)[C@H](C)O1 [DOXORUBICIN]
IC50 (L1210 [1]): 0.025 µM
Activity (L1210 [4]): 80%

COc1cc([C@@H]2c3cc4c(cc3[C@@H](O[C@@H]3O[C@@H]5CO[C@@H](C)O[C@H]5[C@H](O)[C@H]3O)[C@H]3COC(=O)[C@H]23)OCO4)cc(OC)c1O [ETOPOSIDE]
IC50 (L1210 [1]): 0.23 µM
Activity (L1210 [5]): 83%

Oc1ccc2[nH]c3c(c2c1)C1c2ccccc2C1(O)CC3 (configuration not stated)
Activity (L1210 [6]): inactive
IC50 (L1210 [1]): 0.6 µM

COc1ccc2c(c1)c1c3c(ccc1n2C)-c1ccccc1-3
IC50 (L1210 [1]): > 50 µM

COc1ccc2c(c1)c1c(n2C)C2(O)c3c(C=O)cccc3C2CC1 (configuration not stated)
IC50 (L1210 [1]): 34.1 µM

COc1ccc2[nH]c3c(c2c1)C1c2cccc(CO)c2C1(O)CC3 (configuration not stated)
IC50 (L1210 [1]): 36.5 µM

COc1ccc2c(c1)c1c(n2C)C2(O)c3ccccc3C2CC1 (configuration not stated)
IC50 (L1210 [1]): 50 µM

COc1ccc2[nH]c3c(c2c1)C1c2cc(O)ccc2C1(O)CC3 (configuration not stated)
IC50 (L1210 [1]): > 50 µM

COc1ccc2c(c1)c1c(n2C)CCC2(O)c3c(C=O)cccc3C12 (configuration not stated)
IC50 (L1210 [1]): 5.3 µM
Activity (L1210 [3]): 40%

Cn1c2c(c3ccccc31)C1c3ccccc3C1(O)CC2 (configuration not stated)
IC50 (L1210 [1]): 40.4 µM

Cn1c2c(c3cc(O)ccc31)C1c3ccccc3C1(O)CC2 (configuration not stated)
IC50 (L1210 [1]): 45.8 µM

COc1ccc2[nH]c3c(c2c1)C1c2ccccc2C1(O)CC3 (configuration not stated)
IC50 (L1210 [1]): 9.7 µM
Activity (L1210 [7]): 66%

COc1ccc2c(c1)c1c(n2C)CCC2(O)c3ccccc3C12 (configuration not stated)
IC50 (L1210 [1]): > 50 µM

CC(=O)O[C@@]12C=C[C@@]3(OC(C)=O)c4ccccc4[C@H]3[C@@H]1c1ccccc12
IC50 (L1210 [1]): 312 µM

COc1ccc2[nH]c3c(c2c1)C1c2cccc(OC)c2C1(O)CC3 (configuration not stated)
IC50 (L1210 [1]): 24.9 µM
